# According to patent US8952024B2, “Herbicidal pyrimidone derivatives” (E I du Pont de Nemours and Company, priority 2009, dated 2015):
# How the values were obtained:
# Type in all cases: in vivo
# [1] = system: ricefield bulrush (Scirpus mucronatus); experiment: Test E flooded paddy rice and weeds; details: applied to paddy water, 21 days, scale 0 to 100
# Text: (§1) Three plastic pots (ca. 16-cm diameter) for each application were partially filled with sterilized Tama silt loam soil comprising a 35:50:15 ratio of sand, silt and clay and 2.6% organic matter. Separate plantings for each of the three pots were as follows. Seeds from the U.S. of ducksalad (Heteranthera limosa), sedge (smallflower umbrella sedge, Cyperus difformis), ricefield bulrush (Scirpus mucronatus) and redstem (purple redstem, Ammannia coccinea), were planted into one 16-cm pot for each rate. Seeds from the U.S. of flatsedge (rice flatsedge, Cyperus iria), sprangletop (bearded (i.e. Brdd.) sprangletop, Leptochloa fascicularis), one stand of 9 or 10 water seeded rice seedlings (Oryza sativa cv. ‘Japonica—M202’), and two stands of 3 or 4 transplanted rice seedlings (Oryza sativa cv. ‘Japonica—M202’) were planted into one 16-cm pot for each rate. Seeds from the U.S. of barnyardgrass (Echinochloa crus-galli), late watergrass (Echinochloa oryzicola), early watergrass (Echinochloa oryzoides) and junglerice (Echinochloa colona) were planted into one 16-cm pot for each rate. Plantings were sequential so that crop and weed species were at the 2.0 to 2.5-leaf stage at time of treatment.
# (§2) Potted plants were grown in a greenhouse with day/night temperature settings of 30/27° C., and supplemental balanced lighting was provided to maintain a 16-hour photoperiod. Test pots were maintained in the greenhouse until test completion.
# (§3) At time of treatment, test pots were flooded to 3 cm above the soil surface, treated by application of test compounds directly to the paddy water, and then maintained at that water depth for the duration of the test. Effects of treatments on rice and weeds were visually evaluated by comparison to untreated controls after 21 days. Plant response ratings, summarized in Table E, are based on a scale of 0 to 100 where 0 is no effect and 100 is complete control. A dash (-) response means no test result.
# [2] = system: junglerice (Echinochloa colona); experiment: Test E flooded paddy rice and weeds; details: applied to paddy water, 21 days, scale 0 to 100
# Text: as §1, §2, §3
# [3] = system: sprangletop (bearded (i.e. Brdd.) sprangletop, Leptochloa fascicularis); experiment: Test E flooded paddy rice and weeds; details: applied to paddy water, 21 days, scale 0 to 100
# Text: as §1, §2, §3
# [4] = system: barnyardgrass (Echinochloa crus-galli); experiment: Test E flooded paddy rice and weeds; details: applied to paddy water, 21 days
# Text: as §1, §2, §3
# [5] = system: transplanted rice seedlings (Oryza sativa cv. ‘Japonica—M202’); experiment: Test E flooded paddy rice and weeds; details: applied to paddy water, 21 days, scale 0 to 100
# Text: as §1, §2, §3
# [6] = system: sedge (smallflower umbrella sedge, Cyperus difformis); experiment: Test E flooded paddy rice and weeds; details: applied to paddy water, 21 days, scale 0 to 100
# Text: as §1, §2, §3
# [7] = system: redstem (purple redstem, Ammannia coccinea); experiment: Test E flooded paddy rice and weeds; details: applied to paddy water, 21 days, scale 0 to 100
# Text: as §1, §2, §3
# [8] = system: ducksalad (Heteranthera limosa); experiment: Test E flooded paddy rice and weeds; details: applied to paddy water, 21 days, scale 0 to 100
# Text: as §1, §2, §3
# [9] = system: water seeded rice seedlings (Oryza sativa cv. ‘Japonica—M202’); experiment: Test E flooded paddy rice and weeds; details: applied to paddy water, 21 days, scale 0 to 100
# Text: as §1, §2, §3
# [10] = system: late watergrass (Echinochloa oryzicola); experiment: Test E flooded paddy rice and weeds; details: applied to paddy water, 21 days, scale 0 to 100
# Text: as §1, §2, §3
# [11] = system: early watergrass (Echinochloa oryzoides); experiment: Test E flooded paddy rice and weeds; details: applied to paddy water, 21 days, scale 0 to 100
# Text: as §1, §2, §3
# [12] = system: flatsedge (rice flatsedge, Cyperus iria); experiment: Test E flooded paddy rice and weeds; details: applied to paddy water, 21 days, scale 0 to 100
# Text: as §1, §2, §3
# [13] = system: deadnettle (henbit deadnettle, Lamium amplexicaule); experiment: Test C plant response; details: Preemergence, scale 0 to 100
# [14] = system: oilseed rape (Brassica napus); experiment: Test C plant response; details: Preemergence, scale 0 to 100
# [15] = system: galium (catchweed bedstraw, Galium aparine); experiment: Test C plant response; details: Preemergence, scale 0 to 100
# [16] = system: winter wheat (Triticum aestivum); experiment: Test C plant response; details: Preemergence, scale 0 to 100
# [17] = system: chickweed (common chickweed, Stellaria media); experiment: Test C plant response; details: Preemergence, scale 0 to 100
compound,measurement,setting,value
COc1cccc(-n2c(-c3ccccc3)ncc(C(=O)C3=C(O)CCCC3=O)c2=O)c1 [Compound 19],"Plant response rating, Bulrush, Ricefield, Flood",[1]; 64 g ai/ha,50
same,"Plant response rating, Bulrush, Ricefield, Flood",[1]; 125 g ai/ha,70
same,"Plant response rating, Bulrush, Ricefield, Flood",[1]; 250 g ai/ha,70
same,"Plant response rating, Bulrush, Ricefield, Flood",[1]; 500 g ai/ha,75
same,"Plant response rating, Junglerice, Flood",[2]; 64 g ai/ha,0
same,"Plant response rating, Junglerice, Flood",[2]; 125 g ai/ha,50
same,"Plant response rating, Junglerice, Flood",[2]; 250 g ai/ha,65
same,"Plant response rating, Junglerice, Flood",[2]; 500 g ai/ha,80
same,"Plant response rating, Sprangletop, Brdd., Flood",[3]; 64 g ai/ha,75
same,"Plant response rating, Sprangletop, Brdd., Flood",[3]; 125 g ai/ha,95
same,"Plant response rating, Sprangletop, Brdd., Flood",[3]; 250 g ai/ha,100
same,"Plant response rating, Sprangletop, Brdd., Flood",[3]; 500 g ai/ha,100
same,"Plant response rating, Barnyardgrass, Flood","[4]; 64 g ai/ha, scale 0 to 100",60
same,"Plant response rating, Barnyardgrass, Flood","[4]; 125 g ai/ha, scale 0 to 100",60
same,"Plant response rating, Barnyardgrass, Flood","[4]; 250 g ai/ha, scale 0 to 100",70
same,"Plant response rating, Barnyardgrass, Flood","[4]; 500 g ai/ha, scale 0 to 100 (0 no effect, 100 complete control)",85
same,"Plant response rating, Rice, Transplanted, Flood",[5]; 64 g ai/ha,0
same,"Plant response rating, Rice, Transplanted, Flood",[5]; 125 g ai/ha,35
same,"Plant response rating, Rice, Transplanted, Flood",[5]; 250 g ai/ha,40
same,"Plant response rating, Rice, Transplanted, Flood",[5]; 500 g ai/ha,65
same,"Plant response rating, Sedge, Umbrella, Flood",[6]; 64 g ai/ha,90
same,"Plant response rating, Sedge, Umbrella, Flood",[6]; 125 g ai/ha,100
same,"Plant response rating, Sedge, Umbrella, Flood",[6]; 250 g ai/ha,100
same,"Plant response rating, Sedge, Umbrella, Flood",[6]; 500 g ai/ha,100
same,"Plant response rating, Redstem, Flood",[7]; 64 g ai/ha,0
same,"Plant response rating, Redstem, Flood",[7]; 125 g ai/ha,90
same,"Plant response rating, Redstem, Flood",[7]; 250 g ai/ha,90
same,"Plant response rating, Redstem, Flood",[7]; 500 g ai/ha,85
same,"Plant response rating, Ducksalad, Flood",[8]; 64 g ai/ha,85
same,"Plant response rating, Ducksalad, Flood",[8]; 125 g ai/ha,95
same,"Plant response rating, Ducksalad, Flood",[8]; 250 g ai/ha,100
same,"Plant response rating, Ducksalad, Flood",[8]; 500 g ai/ha,100
same,"Plant response rating, Rice, Water Seeded, Flood",[9]; 64 g ai/ha,0
same,"Plant response rating, Rice, Water Seeded, Flood",[9]; 125 g ai/ha,40
same,"Plant response rating, Rice, Water Seeded, Flood",[9]; 250 g ai/ha,70
same,"Plant response rating, Rice, Water Seeded, Flood",[9]; 500 g ai/ha,95
same,"Plant response rating, Watergrass, Late, Flood",[10]; 64 g ai/ha,0
same,"Plant response rating, Watergrass, Late, Flood",[10]; 125 g ai/ha,45
same,"Plant response rating, Watergrass, Late, Flood",[10]; 250 g ai/ha,60
same,"Plant response rating, Watergrass, Late, Flood",[10]; 500 g ai/ha,55
same,"Plant response rating, Watergrass, Early, Flood",[11]; 64 g ai/ha,20
same,"Plant response rating, Watergrass, Early, Flood",[11]; 125 g ai/ha,45
same,"Plant response rating, Watergrass, Early, Flood",[11]; 250 g ai/ha,65
same,"Plant response rating, Watergrass, Early, Flood",[11]; 500 g ai/ha,85
same,"Plant response rating, Flatsedge, Rice, Flood",[12]; 64 g ai/ha,40
same,"Plant response rating, Flatsedge, Rice, Flood",[12]; 125 g ai/ha,40
same,"Plant response rating, Flatsedge, Rice, Flood",[12]; 250 g ai/ha,95
same,"Plant response rating, Flatsedge, Rice, Flood",[12]; 500 g ai/ha,100
"O=C1CCCC(O)=C1C(=O)c1cnc(-c2ccccc2)n(-c2ccccc2)c1=O [Compound 2, 5-[(2-hydroxy-6-oxo-1-cyclohexen-1-yl)carbonyl]-2,3-diphenyl-4(3H)-pyrimidinone]",Plant response rating: Deadnettle,[13]; 62 g ai/ha,95
same,Plant response rating: Deadnettle,[13]; 125 g ai/ha,98
same,Plant response rating: Deadnettle,[13]; 16 g ai/ha,0
same,Plant response rating: Deadnettle,[13]; 31 g ai/ha,75
same,Plant response rating: Oilseed Rape,[14]; 62 g ai/ha,35
same,Plant response rating: Oilseed Rape,[14]; 125 g ai/ha,65
same,Plant response rating: Oilseed Rape,[14]; 16 g ai/ha,0
same,Plant response rating: Oilseed Rape,[14]; 31 g ai/ha,20
same,Plant response rating: Galium,[15]; 62 g ai/ha,0
same,Plant response rating: Galium,[15]; 125 g ai/ha,50
same,"Plant response rating: Wheat, Winter",[16]; 62 g ai/ha,0
same,"Plant response rating: Wheat, Winter",[16]; 125 g ai/ha,0
same,"Plant response rating: Wheat, Winter",[16]; 16 g ai/ha,0
same,"Plant response rating: Wheat, Winter",[16]; 31 g ai/ha,0
same,Plant response rating: Chickweed,[17]; 62 g ai/ha,98
same,Plant response rating: Chickweed,[17]; 125 g ai/ha,98
same,Plant response rating: Chickweed,[17]; 16 g ai/ha,75
same,Plant response rating: Chickweed,[17]; 31 g ai/ha,98
